Where two headings read alike, the source gives them in different places.
How the values were obtained:
[1] = molecular target: acyl-CoA:cholesterol acyltransferase (ACAT); experiment: in vitro ACAT inhibition (LAI): radiolabeled cholesterol oleate formed from radiolabeled oleic acid in rat liver microsomes; format: biochemical; settings: read-out: LAI (IC50, concentration of test compound required to inhibit the activity of the enzyme by 50%)
Description: The test assesses the ability of a test compound to inhibit the acylation of cholesterol by oleic acid by measuring the amount of radiolabeled cholesterol oleate formed from radiolabeled oleic acid in a tissue preparation containing rat liver microsomes.

cholesterol = experiment: APCC in vivo screen: rats on high fat, high cholesterol diet (PCC), blood cholesterol analysis; design: species or system male Sprague-Dawley rats
Description: In one in vivo screen designated APCC, male Sprague-Dawley rats (200 to 225 g) were randomly divided into treatment groups and dosed at 4 PM with either vehicle (CMC/Tween) or suspensions of compounds in vehicle. The normal chow diet was then replaced with a high fat, high cholesterol diet (designated PCC) containing 0.5% cholic acid. The rats consumed this diet ad libitum during the night and were sacrificed at 8 AM to obtain blood samples for cholesterol analysis using standard procedures. Statistical differences between mean cholesterol values for the same vehicle were determined using analysis of variance followed by Fisher's least significant test.

Row | Compound | IC50 [1] | also measured
1 | COP(=O)(Cc1c(C(C)C)cccc1C(C)C)NC(=O)Cc1c(C(C)C)cc(C(C)C)cc1C(C)C (stereo not drawn) [H iPr OCH3 CH2, Phosphonamidic acid, P-[[2,6-bis(1-methylethyl)phenyl]methyl]-N-[[2,4,6-tris(1-methylethyl)phenyl]acetyl]-, methyl ester] | 1200 nM | 
2 | CC(C)c1cc(C(C)C)c(CP(N)(=O)OCc2ccccc2)c(C(C)C)c1 (stereo not drawn) [Monobenzyl, 2,4,6-triisopropylbenzylphosphonamide] |  | IC50 ([1]; rat liver microsomes): 3600 nM; APCC (cholesterol; dose 10 mg/kg, rats, single dose at 4 PM, PCC diet overnight, blood cholesterol at 8 AM): -4
3 | CC(C)c1cc(C(C)C)c(CC(=O)NP(=O)(Oc2c(C(C)C)cccc2C(C)C)c2ccccc2)c(C(C)C)c1 (stereo not drawn) [H iPr Ph O, Phosphonamidic acid, P-phenyl-N-[[2,4,6-tris(1-methylethyl)phenyl]acetyl]-,2,6-bis(1-methylethyl)phenyl ester] | 2500 nM | APCC (cholesterol; rat, in vivo, 10 mg/kg): -25
4 | COP(=O)(Cc1c(C(C)C)cc(C(C)C)cc1C(C)C)NC(=O)Cc1c(C(C)C)cccc1C(C)C (stereo not drawn) [iPr H OCH3 CH2, Phosphonamidic acid, N-[[2,6-bis(1-methyl-ethyl)phenyl)acetyl]-P-[[2,4,6-tris(1-methyl-ethyl)phenyl)methyl]-, methyl ester] | 290 nM | APCC (cholesterol; rat, in vivo, 3 mg/kg): -44
5 | COP(=O)(NC(=O)Cc1c(C(C)C)cc(C(C)C)cc1C(C)C)Oc1c(C(C)C)cccc1C(C)C (stereo not drawn) [iPr H OCH3 O, [(2,4,6-Triisopropyl-phenyl)-acetyl]-phosphoramidic acid 2,6-diisopropyl-phenyl ester methyl ester] | 4800 nM | APCC (cholesterol; rat, in vivo, 1 mg/kg): -18
6 | COP(=O)(NC(=O)Cc1c(C(C)C)cc(C(C)C)cc1C(C)C)Oc1c(C(C)C)cc(Cl)cc1C(C)C (stereo not drawn) [Cl iPr OCH3 O, Phosphoramidic acid, [[2,4,6-tris(1-methylethyl)phenyl]acetyl]-, 4-chloro-2,6-bis(1-methylethyl)phenyl methyl ester] | > 5000 nM | APCC (cholesterol; rat, in vivo, 10 mg/kg): -12
7 | COP(=O)(Cc1c(C(C)C)cc(C(C)C)cc1C(C)C)NC(=O)Cc1c(C(C)C)cc(C(C)C)cc1C(C)C (stereo not drawn) [iPr iPr OCH3 CH2, Phosphonamidic acid, N-[[2,4,6-tris(1-methylethyl)phenyl]acetyl]-P-[[2,4,6-tris(1-methylethyl)phenyl]methyl]-, methyl ester] | 740 nM | 

— patent publication US5807846A, “Phosphonamide ACAT inhibitors” (Warner-Lambert Company, priority 1997, dated 1998)
